We go through 26 compounds from patent publication US20240116892A1, “HETEROCYCLIC AMIDE AND UREA COMPOUNDS AS JAK2 INHIBITORS” (Ajax Therapeutics, Inc., priority 2022, published 2024).

In this assay the target is JAK2 (JH1 domain-catalytic, Y1007F, Y1008F) kinase (Homo sapiens (Human), UniProt O60674, Y1007F/Y1008F). Description: JAK2 JH1 Domain Binding Assay. Conditions: qPCR readout. In short, it runs like this:
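Competitive binding format: test compound, DNA-tagged JAK2 JH1 (Y1007F/Y1008F; HEK293-expressed NFkB fusion) and ligand-coated magnetic beads incubated 1 h at room temperature. Kinase retained on beads released with 0.5 μmol/L non-biotinylated ligand, then measured by qPCR.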

The structures appear in SMILES notation.

Sequence of JAK2 (JH1 domain-catalytic, Y1007F, Y1008F) kinase (O60674 849-1124 Y1007F/Y1008F): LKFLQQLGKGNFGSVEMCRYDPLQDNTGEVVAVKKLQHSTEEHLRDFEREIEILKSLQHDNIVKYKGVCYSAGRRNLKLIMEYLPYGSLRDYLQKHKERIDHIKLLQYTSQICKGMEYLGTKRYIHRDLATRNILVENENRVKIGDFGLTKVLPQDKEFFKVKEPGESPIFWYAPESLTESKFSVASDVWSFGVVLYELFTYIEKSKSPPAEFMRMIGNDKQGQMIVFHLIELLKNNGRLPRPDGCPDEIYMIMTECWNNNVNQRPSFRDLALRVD

For `CN(C)c1n[nH]c2ncc(N3CCC(N(C)C(=O)Nc4cc(C(F)(F)F)cn(C)c4=O)CC3)cc12` [Example I-46, 1-(1-(3-(dimethylamino)-1H-pyrazolo[3,4-b]pyridin-5-yl)piperidin-4-yl)-1-methyl-3-(1-methyl-2-oxo-5-(trifluoromethyl)-1,2-dihydropyridin-3-yl)urea], the Kd (usually the concentration at which binding is half-saturated) was less than 10 nM.

Compound `C[C@H]1CN(C(=O)Nc2cc(C(F)(F)F)cn(C)c2=O)C2(CCN(c3cnc4[nH]cc(C#N)c4n3)CC2)C1` (single isomer, unassigned) [Example I-60-b] registered a Kd of 50 to 1000 nM.

Compound `CNc1cn2ncc(N3CCC(N(C)C(=O)Nc4cc(C(F)(F)F)cn(C)c4=O)CC3)c2cn1` [Example I-92, 1-methyl-3-(1-methyl-2-oxo-5-(trifluoromethyl)-1,2-dihydropyridin-3-yl)-1-(1-(6-(methylamino)pyrazolo[1,5-a]pyrazin-3-yl)piperidin-4-yl)urea] registered a Kd of 10 to 50 nM. With `COCc1cc2nc(N3CC[C@H](N(C)C(=O)Nc4cc(C(F)(F)F)cn(C)c4=O)[C@H](F)C3)cnc2[nH]1` [Example I-111-b, 1-((3R,4S)-3-fluoro-1-(6-(methoxymethyl)-5H-pyrrolo[2,3-b]pyrazin-2-yl)piperidin-4-yl)-1-methyl-3-(1-methyl-2-oxo-5-(trifluoromethyl)-1,2-dihydropyridin-3-yl)urea], the equilibrium dissociation constant (Kd) is less than 10 nM. In the case of `[2H]C1([2H])C[C@@H](N(C)C(=O)Nc2cc(C(F)(F)F)cn(C)c2=O)[C@H](OC)C([2H])([2H])N1c1cnc2[nH]ncc2c1` [Example I-153-a, 1-((3R,4R)-3-methoxy-1-(1H-pyrazolo[3,4-b]pyridin-5-yl)piperidin-4-yl-2,2,6,6-d4)-1-methyl-3-(1-methyl-2-oxo-5-(trifluoromethyl)-1,2-dihydropyridin-3-yl)urea], the Kd is less than 10 nM. Under `CC(=O)Nc1cnc(C2=CC[C@H](N(C)C(=O)Nc3cc(C(F)(F)F)cn(C)c3=O)CC2)cn1` [Example I-140-b, (R)—N-(5-(4-(1-methyl-3-(1-methyl-2-oxo-5-(trifluoromethyl)-1,2-dihydropyridin-3-yl)ureido)cyclohex-1-en-1-yl)pyrazin-2-yl)acetamide] stands less than 10 nM; under `Cn1cc(C(F)(F)F)cc(NC(=O)N2CC=CC23CCN(c2cnc4[nH]ccc4n2)CC3)c1=O` [Example I-78, N-(1-methyl-2-oxo-5-(trifluoromethyl)-1,2-dihydropyridin-3-yl)-8-(5H-pyrrolo[2,3-b]pyrazin-2-yl)-1,8-diazaspiro[4.5]dec-3-ene-1-carboxamide], 10 to 50 nM.

In turn, `CN(C(=O)Nc1cc(C(F)(F)F)cn(C)c1=O)C1CCN(c2cnc3[nH]ncc3c2)CC1` [Example I-26, 1-(1-(1H-pyrazolo[3,4-b]pyridin-5-yl)piperidin-4-yl)-1-methyl-3-(1-methyl-2-oxo-5-(trifluoromethyl)-1,2-dihydropyridin-3-yl)urea] gave a Kd of less than 10 nM. `CN(C(=O)Nc1cc(C(F)(F)F)cn(C)c1=O)C1CCN(c2ccc(NC(=O)C3CC3)nc2)CC1` [Example I-24, N-(5-(4-(1-methyl-3-(1-methyl-2-oxo-5-(trifluoromethyl)-1,2-dihydropyridin-3-yl)ureido)piperidin-1-yl)pyridin-2-yl)cyclopropanecarboxamide]: the Kd is less than 10 nM. As for `COc1c[nH]c2ncc(N3CC[C@@H](N(C)C(=O)Nc4cc(C(F)(F)F)cn(C)c4=O)C[C@H]3C)nc12` [Example I-161-b, 1-((2R,4R)-1-(7-methoxy-5H-pyrrolo[2,3-b]pyrazin-2-yl)-2-methylpiperidin-4-yl)-1-methyl-3-(1-methyl-2-oxo-5-(trifluoromethyl)-1,2-dihydropyridin-3-yl)urea], the figure is 10 to 50 nM; as for `Cn1cc(C(F)(F)F)cc(NC(=O)N2CC=CC23CCN(c2cnc4[nH]cc(C#N)c4n2)CC3)c1=O` [Example I-98, 8-(7-cyano-5H-pyrrolo[2,3-b]pyrazin-2-yl)-N-(1-methyl-2-oxo-5-(trifluoromethyl)-1,2-dihydropyridin-3-yl)-1,8-diazaspiro[4.5]dec-3-ene-1l-carboxamide], 10 to 50 nM; as for `CO[C@@H]1CN(c2cnc3[nH]cc(C)c3n2)CC[C@H]1N(C)C(=O)Nc1cc(C(F)(F)F)cn(C)c1=O` [Example I-118-a, 1-((3R,4R)-3-methoxy-1-(7-methyl-5H-pyrrolo[2,3-b]pyrazin-2-yl)piperidin-4-yl)-1-methyl-3-(1-methyl-2-oxo-5-(trifluoromethyl)-1,2-dihydropyridin-3-yl)urea], 10 to 50 nM.

The compound `CN(C(=O)Nc1cc(C(F)(F)F)cn(C)c1=O)C1CCN(c2cnc3[nH]n(C4CCOCC4)c(=O)c3c2)CC1` [Example I-112, 1-methyl-3-(1-methyl-2-oxo-5-(trifluoromethyl)-1,2-dihydropyridin-3-yl)-1-(1-(3-oxo-2-(tetrahydro-2H-pyran-4-yl)-2,3-dihydro-1H-pyrazolo[3,4-b]pyridin-5-yl)piperidin-4-yl)urea] returned a Kd of 10 to 50 nM. As for `COc1n[nH]c2ncc(N3CC[C@H](N(C)C(=O)Nc4cc(C(F)(F)F)cn(C)c4=O)C[C@@H]3C)cc12` [Example I-133-a, 1-((2S,4S)-1-(3-methoxy-1H-pyrazolo[3,4-b]pyridin-5-yl)-2-methylpiperidin-4-yl)-1-methyl-3-(1-methyl-2-oxo-5-(trifluoromethyl)-1,2-dihydropyridin-3-yl)urea], the figure is less than 10 nM. Compound `CO[C@@H]1CN(c2cnc3[nH]ncc3c2)CC[C@@H]1N(C)C(=O)Nc1cc(C(F)(F)F)cn(C)c1=O` [Example I-88-b, 1-((3R,4S)-3-methoxy-1-(1H-pyrazolo[3,4-b]pyridin-5-yl)piperidin-4-yl)-1-methyl-3-(1-methyl-2-oxo-5-(trifluoromethyl)-1,2-dihydropyridin-3-yl)urea] registered a Kd of less than 10 nM. The compound `CN(C(=O)Nc1cc(C(F)(F)F)cn(C)c1=O)[C@H]1CCN(c2cnc3[nH]n(C)c(=O)c3c2)CC1(F)F` [Example I-96-b, (S)-1-(3,3-difluoro-1-(2-methyl-3-oxo-2,3-dihydro-1H-pyrazolo[3,4-b]pyridin-5-yl)piperidin-4-yl)-1-methyl-3-(1-methyl-2-oxo-5-(trifluoromethyl)-1,2-dihydropyridin-3-yl)urea] came in with a Kd of less than 10 nM.

On to `CN(C(=O)Nc1cc(C(F)(F)F)n([C@H]2CCOC2)n1)C1CCN(c2cnc3[nH]ncc3c2)CC1` [Example I-181, (S)-1-(1-(1H-pyrazolo[3,4-b]pyridin-5-yl)piperidin-4-yl)-1-methyl-3-(1-(tetrahydrofuran-3-yl)-5-(trifluoromethyl)-1H-pyrazol-3-yl)urea], for which the Kd is less than 10 nM. For the compound `CN(C(=O)Nc1cc(C(F)(F)F)cn(C)c1=O)[C@@H]1CCN(c2cnc3[nH]n(C)c(=O)c3c2)C[C@@H]1F` [Example I-89-a, 1-((3S,4R)-3-fluoro-1-(2-methyl-3-oxo-2,3-dihydro-1H-pyrazolo[3,4-b]pyridin-5-yl)piperidin-4-yl)-1-methyl-3-(1-methyl-2-oxo-5-(trifluoromethyl)-1,2-dihydropyridin-3-yl)urea], the Kd lay in the range of 10 to 50 nM. `CN(C(=O)Nc1cc(C(F)(F)F)cn(C)c1=O)C1CCN(c2cnn3cc(O[C@H]4CC[C@@H]4O)ncc23)CC1` [Example I-129-b, 1-(1-(6-((1S,2S)-2-hydroxycyclobutoxy)pyrazolo[1,5-a]pyrazin-3-yl)piperidin-4-yl)-1-methyl-3-(1-methyl-2-oxo-5-(trifluoromethyl)-1,2-dihydropyridin-3-yl)urea] returned a Kd of less than 10 nM.

`CN(C(=O)Nc1cc(C(C)(C)C)n([C@@H]2CCOC2)n1)C1CCN(c2cnc3[nH]ncc3c2)CC1` [Example I-173, (R)-1-(1-(1H-pyrazolo[3,4-b]pyridin-5-yl)piperidin-4-yl)-3-(5-(tert-butyl)-1-(tetrahydrofuran-3-yl)-1H-pyrazol-3-yl)-1-methylurea] showed a Kd of less than 10 nM. Under `CN(C(=O)Nc1cc(C(F)(F)F)cn(C)c1=O)[C@@H]1CCN(c2cnc3[nH]ccc3n2)C[C@H]1F` (single isomer, unassigned) [Example I-63-a] stands less than 10 nM; under `CN(C(=O)Nc1cc(C(F)(F)F)cn(C)c1=O)[C@H]1CCN(c2cnc3[nH]ncc3c2)CC1(C)C` (single isomer, unassigned) [Example I-45-a], less than 10 nM. Under `CN(C(=O)Nc1cc(C(F)(F)F)cn(C)c1=O)[C@@H]1CCN(c2cnc3[nH]ncc3c2)CC1(F)F` [Example I-29-a, (R)-1-(3,3-difluoro-1-(1H-pyrazolo[3,4-b]pyridin-5-yl)piperidin-4-yl)-1-methyl-3-(1-methyl-2-oxo-5-(trifluoromethyl)-1,2-dihydropyridin-3-yl)urea] stands less than 10 nM.

`COCc1cc2nc(N3CC[C@H]4[C@H](C3)OCCN4C(=O)Nc3cc(C(F)(F)F)cn(C)c3=O)cnc2[nH]1` [Example I-164-a, (4aS,8aS)-6-(6-(methoxymethyl)-5H-pyrrolo[2,3-b]pyrazin-2-yl)-N-(1-methyl-2-oxo-5-(trifluoromethyl)-1,2-dihydropyridin-3-yl)octahydro-1/-pyrido[3,4-b][1,4]oxazine-1-carboxamide] showed a Kd of 50 to 1000 nM.

The compound `COc1n[nH]c2ncc(C34CC(N(C)C(=O)Nc5cc(C(F)(F)F)cn(C)c5=O)(C3)C4)cc12` [Example I-156, 1-(3-(3-methoxy-1H-pyrazolo[3,4-b]pyridin-5-yl)bicyclo[1.1.1]pentan-1-yl)-1-methyl-3-(1-methyl-2-oxo-5-(trifluoromethyl)-1,2-dihydropyridin-3-yl)urea] returned a Kd of less than 10 nM.

Turning to `CCN1CCN(Cc2ccc(NC(=O)N(C)C3CCN(c4cnc5[nH]nc(OC)c5c4)CC3)cc2C(F)(F)F)CC1` [Example I-182, 3-(4-((4-ethylpiperazin-1-yl)methyl)-3-(trifluoromethyl)phenyl)-1-(1-(3-methoxy-1H-pyrazolo[3,4-b]pyridin-5-yl)piperidin-4-yl)-1-methylurea], the Kd is less than 10 nM.
